Assay results: the supplement of paper PMC10307832

Tests used:
Assay in all cases: relative viability (nuclei count vs DMSO), 5 days (fraction); higher = more cells survive
[1] = compound: CCn1c(-c2nonc2N)nc2c(C#CC(C)(C)O)ncc(OC[C@H]3CCCNC3)c21 + Cc1nc(NC(=O)N2CCC[C@H]2C(N)=O)sc1-c1ccnc(C(C)(C)C(F)(F)F)c1 [Alpelisib] (partner 2 µM)
In short: (§1)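 Relative viability was taken as the ratio of nuclei in treated wells to nuclei in vehicle wells. Lung cancer cell lines in 1536-well plates received compounds by pin tool one day after seeding, either one drug alone or a fixed anchor-drug dose plus five library-drug doses (not always all listed) in √10 steps. Nuclei were counted on 4× images after 5 days of treatment, and values are medians of duplicate plates.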

BAM7 + Tozasertib = compound: CCOC1=CC=CC=C1N=NC2=C(NN(C2=O)C3=NC(=CS3)C4=CC=CC=C4)C [BAM7] + Cc1cc(Nc2cc(N3CCN(C)CC3)nc(Sc3ccc(NC(=O)C4CC4)cc3)n2)n[nH]1 [Tozasertib] (partner 0.1 µM)
In short: as §1

BAM7 + OSI-027 = compound: CCOC1=CC=CC=C1N=NC2=C(NN(C2=O)C3=NC(=CS3)C4=CC=CC=C4)C [BAM7] + COc1cccc2cc(-c3nc([C@H]4CC[C@H](C(=O)O)CC4)n4ncnc(N)c34)[nH]c12 [OSI-027] (partner 0.5 µM)
In short: as §1

BAM7 + AZD7762 = compound: CCOC1=CC=CC=C1N=NC2=C(NN(C2=O)C3=NC(=CS3)C4=CC=CC=C4)C [BAM7] + NC(=O)Nc1cc(-c2cccc(F)c2)sc1C(=O)N[C@H]1CCCNC1 [AZD7762] (partner 0.2 µM)
In short: as §1

Cell Line	relative viability ([1]; first compound 0.01 µM)	relative viability ([1]; first compound 0.03162 µM)	relative viability ([1]; first compound 0.1 µM)	relative viability ([1]; first compound 0.3162 µM)	relative viability ([1]; first compound 1 µM)	relative viability (BAM7 + Tozasertib; first compound 0.5 µM)	relative viability (BAM7 + Tozasertib; first compound 5 µM)	relative viability (BAM7 + Tozasertib; first compound 15.81 µM)	relative viability (BAM7 + Tozasertib; first compound 50 µM)	relative viability (BAM7 + OSI-027; first compound 0.5 µM)	relative viability (BAM7 + OSI-027; first compound 5 µM)	relative viability (BAM7 + OSI-027; first compound 15.81 µM)	relative viability (BAM7 + OSI-027; first compound 50 µM)	relative viability (BAM7 + AZD7762; first compound 0.5 µM)	relative viability (BAM7 + AZD7762; first compound 5 µM)	relative viability (BAM7 + AZD7762; first compound 15.81 µM)	relative viability (BAM7 + AZD7762; first compound 50 µM)
NCI-H1993	0.732	0.718	0.57	0.729	0.868	0.564	0.639	0.582	0.505	0.537	0.538	0.553	0.568	0.814	0.624	0.495	0.665
NCI-H1734	0.652	0.624	0.631	0.655	0.658	0.289	0.253	0.246	0.248	0.606	0.657	0.602	0.647	0.559	0.642	0.526	0.548
HOP-62	0.966	1.12	0.819	0.951	1.13	0.417	0.413	0.337	0.308	0.888	0.87	0.808	0.92	0.648	0.917	0.733	0.342
LOU-NH91	0.751	0.795	0.736	0.706	0.732	0.667	0.702	0.674	0.689	0.717	0.729	0.729	0.801	0.796	0.794	0.75	0.793
PC-14	0.945	0.909	1	0.888	0.865	0.58	0.595	0.591	0.557	0.872	0.898	0.764	0.926	0.356	0.317	0.334	0.374
NCI-H1437	0.895	0.964	0.965	0.778	0.902	0.482	0.489	0.417	0.425	1.19	0.985	0.883	0.972	1.1	1.11	0.945	1.02
NCI-H460	0.439	0.496	0.477	0.447	0.437	0.4	0.0975	0.123	0.131	0.525	0.468	0.55	0.624	0.595	0.751	0.494	0.571
NCI-H1666	0.874	1.1	0.992	0.792	0.831	0.586	0.57	0.613	0.591	0.899	0.786	0.875	0.929	0.847	0.826	0.902	0.762
NCI-H1651	1.01	0.879	0.937	0.917	1.19	0.674	0.758	0.637	0.638	0.657	0.758	0.7	0.653	0.444	0.46	0.473	0.45
NCI-H1755	0.943	0.944	0.896	0.916	0.981	0.602	0.615	0.55	0.644	0.81	0.698	0.689	0.719	0.472	0.437	0.495	0.405
HARA	0.843	0.884	0.824	0.781	0.861	0.117	0.116	0.093	0.0898	0.53	0.63	0.468	0.485	0.21	0.269	0.356	0.195
NCI-H596	0.365	0.522	0.482	0.487	0.503	1.11	0.936	0.789	0.9	0.686	0.576	0.593	0.725	1.27	1.12	0.92	1.05
NCI-H23	0.605	0.717	0.686	0.528	0.588	0.245	0.367	0.288	0.256	0.492	0.561	0.451	0.526	0.165	0.35	0.287	0.255
LCLC-97TM1		0.278	0.224	0.235	0.257	0.207	0.442	0.261	0.172	0.699	0.469	0.505	0.677	0.222	0.172	0.29	0.252
EPLC-272H	0.962	1.02	0.989	0.858	0.956	0.252		0.275	0.334	0.289		0.277	0.32	0.23	0.301	0.226	0.289
NCI-H1915	1.06	1.06	1.02	1.04	1.08	0.443	0.4	0.405	0.399	0.687	0.674	0.6	0.625	0.676	0.671	0.759	0.741
NCI-H2405	0.839	0.782		0.749	0.855	0.721	0.809	0.73	0.721	0.623	0.686	0.608	0.683	0.832	0.862	0.811	0.758
